Assay results as given in ChEMBL document CHEMBL4024707, “Using gene expression database to uncover biology functions of 1,4-disubstituted 1,2,3-triazole analogues synthesized via a copper (I)-catalyzed reaction” (Eur J Med Chem, 2017).

How the values were obtained:
Hep 3B2 [1] = assay: Cell cycle arrest in human Hep3B cells assessed as accumulation at sub-G1 phase at 5 uM after 48 hrs by propidium iodide staining based flow cytometry (reference value: 1.5 to 6.5%); format: functional
[2] = Growth inhibition of HUVEC at 12.5 uM after 24 hrs by MTT assay relative to control; format: cell-based; settings: human, HUVEC cells; read-out: GI
Hep 3B2 [3] = assay: Cell cycle arrest in human Hep3B cells assessed as accumulation at sub-G1 phase at 10 uM after 24 hrs by propidium iodide staining based flow cytometry (reference value: 1.9 to 3.6%); format: functional
Hep 3B2 [4] = assay: Cell cycle arrest in human Hep3B cells assessed as accumulation at S phase at 20 uM after 48 hrs by propidium iodide staining based flow cytometry (reference value: 20.8 to 24%); format: functional
Hep 3B2 [5] = assay: Cell cycle arrest in human Hep3B cells assessed as accumulation at sub-G1 phase at 2.5 uM after 72 hrs by propidium iodide staining based flow cytometry (reference value: 0.6 to 3.3 %); format: functional
Hep 3B2 [6] = assay: Cell cycle arrest in human Hep3B cells assessed as accumulation at sub-G1 phase at 20 uM after 72 hrs by propidium iodide staining based flow cytometry (reference value: 0.6 to 3.3%); format: functional
Hep 3B2 [7] = assay: Cell cycle arrest in human Hep3B cells assessed as accumulation at G0/G1 phase at 5 uM after 72 hrs by propidium iodide staining based flow cytometry (reference value: 41.6 to 46.2%); format: functional
Hep 3B2 [8] = assay: Induction of autophagy in human Hep3B cells at 5 uM after 24 hrs by acridine orange staining based flow cytometry (reference value: 1.1 to 1.3%); format: functional
Hep 3B2 [9] = assay: Cell cycle arrest in human Hep3B cells assessed as accumulation at sub-G1 phase at 2.5 to 20 uM by propidium iodide staining based flow cytometry; format: functional; settings: TDE = time-dependent effect
Hep 3B2 [10] = assay: Cell cycle arrest in human Hep3B cells assessed as accumulation at S phase at 10 uM after 48 hrs by propidium iodide staining based flow cytometry (reference value: 20.8 to 24%); format: functional
Hep 3B2 [11] = assay: Cell cycle arrest in human Hep3B cells assessed as accumulation at sub-G1 phase at 2.5 uM after 24 hrs by propidium iodide staining based flow cytometry (reference value: 1.9 to 3.6%); format: functional
[12] = Growth inhibition of HUVEC at 50 uM after 24 hrs by MTT assay relative to control; format: cell-based; settings: human, HUVEC cells; read-out: GI
Hep 3B2 [13] = assay: Cell cycle arrest in human Hep3B cells assessed as accumulation at sub-G1 phase at 5 uM after 24 hrs by propidium iodide staining based flow cytometry (reference value: 1.9 to 3.6%); format: functional
Hep 3B2 [14] = assay: Induction of autophagy in human Hep3B cells at 2.5 uM after 48 hrs by acridine orange staining based flow cytometry (reference value: 0.9 to 3%); format: functional
Hep 3B2 [15] = assay: Cell cycle arrest in human Hep3B cells assessed as accumulation at sub-G1 phase at 10 uM after 48 hrs by propidium iodide staining based flow cytometry (reference value: 1.5 to 6.5%); format: functional
Hep 3B2 [16] = assay: Induction of autophagy in human Hep3B cells at 5 uM after 48 hrs by acridine orange staining based flow cytometry (reference value: 0.9 to 3%); format: functional
Hep 3B2 [17] = assay: Cell cycle arrest in human Hep3B cells assessed as accumulation at S phase at 5 uM after 24 hrs by propidium iodide staining based flow cytometry (reference value: 22.6 to 27.1%); format: functional
Hep 3B2 [18] = assay: Induction of autophagy in human Hep3B cells at 2.5 uM after 24 hrs by acridine orange staining based flow cytometry (reference value: 1.1 to 1.3%); format: functional
HUVEC = assay: Cytotoxicity against HUVEC after 48 hrs by MTT assay; format: cell-based; settings: Homo sapiens
Hep 3B2 [19] = assay: Induction of autophagy in human Hep3B cells at 5 uM after 72 hrs by acridine orange staining based flow cytometry (reference value: 1.1 to 4%); format: functional
Hep 3B2 [20] = assay: Induction of autophagy in human Hep3B cells after 24 to 72 hrs by acridine orange staining based flow cytometry; format: functional, cell-based
Hep 3B2 [21] = assay: Cell cycle arrest in human Hep3B cells assessed as accumulation at S phase at 20 uM after 72 hrs by propidium iodide staining based flow cytometry (reference value: 16.4 to 21.1%); format: functional
Hep 3B2 [22] = assay: Induction of autophagy in human Hep3B cells at 2.5 to 20 uM by acridine orange staining based flow cytometry; format: functional, cell-based; settings: TDE = time-dependent effect
Hep 3B2 [23] = assay: Induction of autophagy in human Hep3B cells at 10 uM after 24 hrs by acridine orange staining based flow cytometry (reference value: 1.1 to 1.3%); format: functional
Hep 3B2 [24] = assay: Cell cycle arrest in human Hep3B cells assessed as accumulation at S phase at 10 uM after 24 hrs by propidium iodide staining based flow cytometry (reference value: 22.6 to 27.1%); format: functional
Hep 3B2 [25] = assay: Induction of autophagy in human Hep3B cells at 20 uM after 72 hrs by acridine orange staining based flow cytometry (reference value: 1.1 to 4%); format: functional
Hep 3B2 [26] = assay: Cell cycle arrest in human Hep3B cells assessed as accumulation at sub-G1 phase at 10 uM after 72 hrs by propidium iodide staining based flow cytometry (reference value: 0.6 to 3.3%); format: functional
Hep 3B2 [27] = assay: Cytotoxicity against human Hep3B cells at 20 uM after 48 hrs by MTT assay relative to control; format: functional
Hep 3B2 [28] = assay: Cell cycle arrest in human Hep3B cells assessed as accumulation at S phase at 2.5 uM after 72 hrs by propidium iodide staining based flow cytometry (reference value: 16.4 to 21.1%); format: functional
Hep 3B2 [29] = assay: Cell cycle arrest in human Hep3B cells assessed as accumulation at sub-G1 phase after 24 to 72 hrs by propidium iodide staining based flow cytometry; format: functional
[30] = Growth inhibition of HUVEC at 25 uM after 24 hrs by MTT assay relative to control; format: cell-based; settings: human, HUVEC cells; read-out: GI
Hep 3B2 [31] = assay: Induction of autophagy in human Hep3B cells at 2.5 uM after 72 hrs by acridine orange staining based flow cytometry (reference value: 1.1 to 4%); format: functional
Hep 3B2 [32] = assay: Cell cycle arrest in human Hep3B cells assessed as accumulation at sub-G1 phase at 5 uM after 72 hrs by propidium iodide staining based flow cytometry (reference value: 0.6 to 3.3%); format: functional
Hep 3B2 [33] = assay: Cell cycle arrest in human Hep3B cells assessed as accumulation at sub-G1 phase at 2.5 uM after 48 hrs by propidium iodide staining based flow cytometry (reference value: 1.5 to 6.5%); format: functional
Hep 3B2 [34] = assay: Cell cycle arrest in human Hep3B cells assessed as accumulation at sub-G1 phase at 20 uM after 24 hrs by propidium iodide staining based flow cytometry (reference value: 1.9 to 3.6%); format: functional
Hep 3B2 [35] = assay: Induction of autophagy in human Hep3B cells at 10 uM after 48 hrs by acridine orange staining based flow cytometry (reference value: 0.9 to 3%); format: functional
Hep 3B2 [36] = assay: Induction of autophagy in human Hep3B cells at 20 uM after 48 hrs by acridine orange staining based flow cytometry (reference value: 0.9 to 3%); format: functional
Hep 3B2 [37] = assay: Cell cycle arrest in human Hep3B cells assessed as accumulation at sub-G1 phase at 20 uM after 48 hrs by propidium iodide staining based flow cytometry (reference value: 1.5 to 6.5%); format: functional

Structure (SMILES)	Activity (Hep 3B2 [1]) [%]	inhibition at 24 h, 12.5 µM [2] [%]	Activity (Hep 3B2 [3]) [%]	Activity (Hep 3B2 [5]) [%]	Activity (Hep 3B2 [6]) [%]	Activity (Hep 3B2 [8]) [%]	Activity (Hep 3B2 [11]) [%]	Activity (Hep 3B2 [13]) [%]	Activity (Hep 3B2 [14]) [%]	Activity (Hep 3B2 [15])	Activity (Hep 3B2 [16]) [%]	Activity (Hep 3B2 [18]) [%]	Activity (Hep 3B2 [19]) [%]	Activity (Hep 3B2 [22])	Activity (Hep 3B2 [23]) [%]	Activity (Hep 3B2 [25]) [%]	Activity (Hep 3B2 [26]) [%]	Activity (Hep 3B2 [31]) [%]	Activity (Hep 3B2 [32]) [%]	Activity (Hep 3B2 [33]) [%]	other results
CNC(=O)c1cc(Oc2ccc(NC(=O)Nc3ccc(Cl)c(C(F)(F)F)c3)cc2)ccn1 [SORAFENIB]	5	37.4	6.9	5.3	65	2.4	5.2	7.3	1.3	11.8%	1.5	2	6.1	Tde	3.2	84.9	13.7	2.3	7.2	4	Activity (Hep 3B2 [4]): 9.6%; Activity (Hep 3B2 [7]): 47.8%; Activity (Hep 3B2 [9]): Tde; Activity (Hep 3B2 [10]): 8.8%; inhibition at 24 h, 50 µM [12]: 60%; Activity (Hep 3B2 [17]): 19.8%; IC50 (HUVEC): 40.6 µM; Activity (Hep 3B2 [20]): Dose-dependent effect; Activity (Hep 3B2 [21]): 6.2%; Activity (Hep 3B2 [24]): 12.3%; Activity (Hep 3B2 [27]): 68.4%; Activity (Hep 3B2 [28]): 15%; Activity (Hep 3B2 [29]): Dose-dependent effect; inhibition at 24 h, 25 µM [30]: 41.4%
COc1ccc(CNC(=O)Nc2ncc([N+](=O)[O-])s2)cc1	5	–	5	1.6	2.1	5.3	3.1	4.2	8.1	3.3%	6.3	4.7	10.9	Tde	5.9	15.5	1.3	6.4	2.4	3.4	Activity (Hep 3B2 [4]): 20%; Activity (Hep 3B2 [7]): 42.4%; Activity (Hep 3B2 [10]): 23.2%; Activity (Hep 3B2 [34]): 4.7%; Activity (Hep 3B2 [35]): 5.8%; Activity (Hep 3B2 [17]): 25%; Activity (Hep 3B2 [36]): 5.5%; Activity (Hep 3B2 [20]): Dose-dependent effect; Activity (Hep 3B2 [37]): 3.6%; Activity (Hep 3B2 [21]): 19.5%; Activity (Hep 3B2 [24]): 23.4%; Activity (Hep 3B2 [28]): 21.1%
O=C1COc2ccccc2N1Cc1cn(CCC2OCCO2)nn1	14.2	15.2	22.4	7.9	65.7	1.6	6.2	12.4	1.9	37.4 - 41.4%	5.1	1.3	12.8	Tde	2.4	57	54	1.9	18	6.5	Activity (Hep 3B2 [9]): Tde; Activity (Hep 3B2 [34]): 34.1%; Activity (Hep 3B2 [35]): 20.3%; inhibition at 24 h, 50 µM [12]: 21.5%; IC50 (HUVEC): 115 µM; Activity (Hep 3B2 [36]): 37%; Activity (Hep 3B2 [37]): 57.2%; Activity (Hep 3B2 [27]): 53.4%; Activity (Hep 3B2 [29]): Dose-dependent effect; inhibition at 24 h, 25 µM [30]: 23.8%
